In ChEMBL document CHEMBL1201862, “PubChem BioAssay data set” (2004):
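48-hour exposure; five concentrations; linearly interpolated endpoints. At the GI50, growth is halved.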 The source made the active and inactive calls. Cut-off read from the data, not from the text of the source: active = GI50 up to about 1.1 µM and inactive = higher.

Columns and labels:
Test in all cases: inhibition of tumour cell growth, NCI panel, 48 h
HL-60 = system: HL-60
SF-295 = system: SF-295
ACHN = system: ACHN
Malme-3M = system: Malme-3M
M19-MEL = system: M19-MEL
SNB-78 = system: SNB-78
786-0 = system: 786-0
SK-MEL-2 = system: SK-MEL-2
SN12C = system: SN12C
HCT-116 = system: HCT-116
HOP-18 = system: HOP-18
SK-MEL-28 = system: SK-MEL-28
EKVX = system: EKVX
CAKI-1 = system: CAKI-1
OVCAR-5 = system: OVCAR-5
HT-29 = system: HT-29
SR = system: SR
NCI-H460 = system: NCI-H460
OVCAR-3 = system: OVCAR-3
LXFL 529 = system: LXFL 529
UACC-62 = system: UACC-62
HOP-62 = system: HOP-62
NCI-H23 = system: NCI-H23
KM12 = system: KM12
HCT-15 = system: HCT-15
SW-620 = system: SW-620
SF-539 = system: SF-539
DMS-273 = system: DMS-273
M14 = system: M14
NCI-H522 = system: NCI-H522
MOLT-4 = system: MOLT-4
HOP-92 = system: HOP-92
SF-268 = system: SF-268
UACC-257 = system: UACC-257
SK-MEL-5 = system: SK-MEL-5
XF498 = system: XF498
KM-20L2 = system: KM-20L2
HCC 2998 = system: HCC 2998
LOX IMVI = system: LOX IMVI
SNB-19 = system: SNB-19
K562 = system: K562
A549 = system: A549
RXF 393 = system: RXF 393
DMS-114 = system: DMS-114
OVCAR-8 = system: OVCAR-8
RPMI-8226 = system: RPMI-8226
IGROV-1 = system: IGROV-1
COLO 205 = system: COLO 205
UO-31 = system: UO-31
OVCAR-4 = system: OVCAR-4
TK-10 = system: TK-10
A498 = system: A498
CCRF-CEM = system: CCRF-CEM
SK-OV-3 = system: SK-OV-3
SNB-75 = system: SNB-75
U-251 = system: U-251
DLD-1 = system: DLD-1
NCI-H226 = system: NCI-H226

Measured: GI50

CC(C)=CC1C[C@H](C2CC=C3C2(C)CCC2[C@@]3(C)C(=O)CC3[C@]2(C)C=CC(=O)[C@]3(C)CO)CO1 (stereo not given in full)
inactive: HL-60 2.92 µM | SF-295 13 µM | ACHN 13.2 µM | Malme-3M 11.5 µM | M19-MEL 3.85 µM | SNB-78 13.6 µM | 786-0 5.96 µM | SK-MEL-2 5.45 µM | SN12C 20.3 µM | HCT-116 3.37 µM | HOP-18 11 µM | SK-MEL-28 5.2 µM | EKVX 26.2 µM | CAKI-1 23.9 µM | OVCAR-5 21 µM | HT-29 4.15 µM | SR 3.02 µM | NCI-H460 11.6 µM | OVCAR-3 4.84 µM | LXFL 529 3.45 µM | UACC-62 11.8 µM | HOP-62 12.7 µM | NCI-H23 5.42 µM | KM12 5.92 µM | SW-620 4.28 µM | SF-539 4.57 µM | DMS-273 5.66 µM | M14 3.12 µM | NCI-H522 2.73 µM | MOLT-4 2.7 µM | HOP-92 16.6 µM | SF-268 5.82 µM | UACC-257 13.9 µM | SK-MEL-5 10 µM | XF498 4.93 µM | KM-20L2 5.42 µM | HCC 2998 16.3 µM | LOX IMVI 3.76 µM | SNB-19 19 µM | K562 4.34 µM | A549 20.8 µM | RXF 393 10.4 µM | DMS-114 4.23 µM | OVCAR-8 4.55 µM | RPMI-8226 3.15 µM | IGROV-1 13.6 µM | COLO 205 14 µM | UO-31 18.6 µM | OVCAR-4 10.7 µM | TK-10 25.8 µM | A498 8.81 µM | CCRF-CEM 2.96 µM | SK-OV-3 16.6 µM | SNB-75 8.04 µM | U-251 8.83 µM
14.4 µM: HCT-15

Nc1c(C(=O)Nc2ccccc2)[n+]([O-])c2ccccc2[n+]1[O-]
13.1 µM: HCT-15
inactive: HL-60 17.9 µM | SF-295 20.9 µM | ACHN 16.3 µM | Malme-3M > 10 µM | M19-MEL 15 µM | SNB-78 16.9 µM | 786-0 13.6 µM | SK-MEL-2 15.8 µM | SN12C 14.8 µM | HOP-18 13.5 µM | SK-MEL-28 17.8 µM | EKVX 25.9 µM | CAKI-1 5.6 µM | OVCAR-5 22.5 µM | HT-29 16.6 µM | NCI-H460 14.9 µM | OVCAR-3 17.3 µM | LXFL 529 14.4 µM | UACC-62 10.5 µM | HOP-62 19.1 µM | NCI-H23 12.5 µM | KM12 14.2 µM | DLD-1 15.6 µM | SW-620 15.2 µM | SF-539 17.9 µM | DMS-273 20.6 µM | M14 15.6 µM | NCI-H522 2.09 µM | MOLT-4 18.7 µM | HOP-92 16.7 µM | SF-268 25.1 µM | UACC-257 17.9 µM | SK-MEL-5 14.3 µM | XF498 16.6 µM | KM-20L2 17.7 µM | HCC 2998 17.6 µM | LOX IMVI 12.3 µM | SNB-19 15.5 µM | K562 17.1 µM | A549 25.1 µM | DMS-114 9.62 µM | OVCAR-8 36.8 µM | RPMI-8226 20.6 µM | IGROV-1 18.4 µM | COLO 205 15.5 µM | UO-31 21.2 µM | OVCAR-4 17.6 µM | NCI-H226 23.9 µM | TK-10 24.7 µM | A498 16.9 µM | CCRF-CEM 19.1 µM | SK-OV-3 > 100 µM | SNB-75 13 µM | U-251 12.9 µM

CC(=O)C1C(c2ccccc2)C2(C)OC(=O)C(C#N)C12C (stereo not given)
inactive: HL-60 > 100 µM | SF-295 > 100 µM | ACHN > 100 µM | Malme-3M > 100 µM | M19-MEL > 100 µM | SNB-78 > 100 µM | 786-0 > 100 µM | SK-MEL-2 > 100 µM | SN12C > 100 µM | HCT-116 > 100 µM | HOP-18 > 100 µM | SK-MEL-28 > 100 µM | EKVX > 100 µM | OVCAR-5 > 100 µM | NCI-H460 > 100 µM | OVCAR-3 > 100 µM | LXFL 529 > 100 µM | UACC-62 > 100 µM | NCI-H23 > 100 µM | KM12 > 100 µM | DLD-1 > 100 µM | SW-620 > 100 µM | SF-539 > 100 µM | DMS-273 > 100 µM | M14 > 100 µM | MOLT-4 > 100 µM | SF-268 > 100 µM | SK-MEL-5 > 100 µM | XF498 > 100 µM | KM-20L2 > 100 µM | LOX IMVI > 100 µM | SNB-19 > 100 µM | K562 > 100 µM | A549 > 100 µM | RXF 393 > 100 µM | DMS-114 > 100 µM | OVCAR-8 > 100 µM | RPMI-8226 > 100 µM | IGROV-1 > 100 µM | COLO 205 > 100 µM | UO-31 > 100 µM | OVCAR-4 > 100 µM | NCI-H226 > 100 µM | TK-10 > 100 µM | CCRF-CEM > 100 µM | SK-OV-3 > 100 µM | SNB-75 > 100 µM | U-251 > 100 µM
> 100 µM: HCT-15
